Legend:
[1] = tested on: Purple nutsedge; experiment: Test 11 windowsill flats, postemergence; type: in vivo, Cyperus rotundus; settings: Postemergence 32 g/ha, 0.25% X-77 surfactant, scale 0-100
Description: (§1) Budded citrus seedlings were planted in 30-liter plastic pots which were also seeded with sandbur, guineagrass, narrowleaf panicum, common ragweed, yellow nutsedge, purple nutsedge and bindweed. Compound I was applied preemergence and postemergence to the weeds. Treatments were sprayed to simulate the trunk-to-trunk herbicide application method used in some citrus groves. The compound was also applied postemergence to weeds grown in windowsill flats. The flats were filled with planting medium and seeded with morningglory (Ipomoea spp.). purple nutsedge (Cyperus rotundus), pigweed (Amaranthus spp.), bindweed (Convolvulus spp.), narrowleaf panicum (Panicum maximum), common ragweed (Ambrosia artemisiifolia), sandbur (Cenchrus echinatus), itchgrass (Rottboellia exaltata), johnsongrass (Sorghum halepense), guineagrass (Panicum maximum), smooth crabgrass (Digitaria ischaemum), broadleaf signalgrass (Brachiaria platyphylla), bermudagrass (Cynodon dactylon), goosegrass (Eleusine indica), large crabgrass (Digitaria sanguinalis) and yellow nutsedge (Cyperus esculentus).
(§2) The compound was formulated and sprayed with 0.25% X-77 surfactant in water. Plants were visually rated 21 and 29 days after treatment and compared with appropriate controls. Injury ratings were based on the scale of 0 to 100, where 0 indicates no effect, 20 indicates minimum effect and 100 indicates complete control. […]

[2] = tested on: Common ragweed; experiment: Test 11 citrus pots, postemergence to the weeds; type: in vivo, Ambrosia artemisiifolia; settings: Postemergence 32 g/ha, 0.25% X-77 surfactant, scale 0-100
Description: as §1, §2

[3] = tested on: Sour Lemon; experiment: Test 12 over-the-top application, postemergence; type: in vivo; settings: 26 days after treatment, scale 0-100
Description: The object of this test was to evaluate the safety of sour lemon to the over-the-top application of Compound I and control of lantana (Lantana camara) and trumpetcreeper (Campsis radicans). Plants were sprayed postemergence with Compound I formulated in a non-phytotoxic solvent. Treated plants were visually rated 26 days after treatment and compared with appropriate controls. Injury ratings were based on the scale of 0 to 100, where 0 indicates no effect, 20 indicates minimal effect and 100 indicates complete control.

[4] = tested on: Red clover; experiment: Test 7 postemergence; type: in vivo, Trifolium pratense; settings: scale 0-100
Description: Individual 11.4-cm plastic pots filled with planting medium were seeded with rape, wild radish (Raphanus raphanistruna). tansy mustard (Descurainia pinnata), ball mustard (Neslia paniculata), black mustard (Brassica nigra), yellow mustard, brown mustard, lentils, safflower, flax, sunflower, peanut, vetch, alfalfa, field bean, pea, violet (Viola spp), Kochia (Kochia spp), Russian thistle (Salsola spp), Matricaria spp, groundsel (Senecio spp), shepherdspurse (Capsella bursa-pastoris), nightshade (Solanum spp), sowthistle (Sonchus spp), sugar beet, wheat, "Bonanza" barley and "Morex" barley, Kentucky bluegrass (Poa pratensis), red clover (Trifolium pratense), dandelion (Taraxacum spp) and buckhorn plantain (Plantago lanceolata).
Plants were treated postemergence with the compound formulated with a non-phytotoxic carrier. Plants were visually rated 18 days after treatment (DAT). Response ratings were based on the scale of 0 to 100 where 0 = no effect, 20 = minimal injury and 100 = complete control.

[5] = tested on: Convolvulus arvensis; experiment: Test 1 greenhouse, postemergence; type: in vivo; settings: 21 days, scale 0-100
Description: (§3) Seeds of Bromus tectorum, Kochia scoparia, Salsoa kali, Avena fatua, Convolvulus arvensis, Secale cereale, Setaria viridis and Triticum aestivum were placed in 26-cm plastic pans containing a pasteurized sandy loam soil (pH 6.5, 1% organic matter). Plantings were maintained in the greenhouse for 18-28 days at which time the postemergence treatments were applied using a nonphytotoxic solvent as the carrier for the herbicide. The preemergence segment of the test was seeded immediately before herbicide application using Bromus tectorum, Kochia scoparia, Polygonum convolvulus, Salsoa kali, Avena fatua, Convolvulus arvensis, Secale cereale, Setaria viridis, Aegilops cylindrica, Amaranthus retroflexus, Chenopodium album, Hordeum vulgare, Triticum aestivum, Sorghum bicolor, and Zea mays. All treatments were maintained in the greenhouse for an additional 21 days at which time visual assessment of weed control was determined using a scale of 0 to 100 for each species where 0 represented no control and 100 represented complete control.

[6] = tested on: Kochia scoparia; experiment: Test 1 greenhouse, postemergence; type: in vivo; settings: 21 days, scale 0-100
Description: as §3

[7] = tested on: Secale cereale; experiment: Test 1 greenhouse, postemergence; type: in vivo; settings: 21 days, scale 0-100
Description: as §3

[8] = tested on: Bromus tectorum; experiment: Test 1 greenhouse, postemergence; type: in vivo; settings: 21 days, scale 0-100
Description: as §3

[9] = tested on: Avena fatua; experiment: Test 1 greenhouse, postemergence; type: in vivo; settings: 21 days, scale 0-100
Description: as §3

[10] = tested on: Setaria viridis; experiment: Test 1 greenhouse, postemergence; type: in vivo; settings: 21 days, scale 0-100
Description: as §3

[11] = tested on: Salsoa kali; experiment: Test 1 greenhouse, postemergence; type: in vivo; settings: 21 days, scale 0-100
Description: as §3

[12] = tested on: Triticum aestivum; experiment: Test 1 greenhouse, postemergence; type: in vivo; settings: 21 days, scale 0-100
Description: as §3

[13] = tested on: Wild oats; experiment: Test 10 postemergence safety to crops and weed control; type: in vivo, Avena fatua; settings: 16 g/ha, scale 0-100
Description: The object of these tests was to evaluate the compound of this invention for postemergence safety to crops and weed control. Seedling and budded Macedine grapes were grown in 11.4-cm pots. Flax, green foxtail (Setaria viridis), "Morex" barley, wild oats (Avena fatua), "Era" wheat, annual ryegrass (Lolium multiflorum), wild radish (Raphanus raphanistrum), rape, sunflower, chickweed (Stellaria media) and wild buckwheat (Polygonum convolvulus) were seeded in windowsill pots.
The plants were sprayed postemergence with Compound I in a non-phytotoxic solvent. Plants were visually rated 15 and 27 days after treatment (DAT). Injury and weed control ratings were based on the scale of 0 to 100 where 0 = no effect, 20 minimal control and 100 = complete control.

COC(=O)c1cccnc1S(=O)(=O)NC(=O)Nc1nc(OC)cc(OC)n1 [Compound I, 2-[[(4,6-dimethoxypyrimidin-2-yl)aminocarbonyl]aminosulfonyl]-3-pyridinecarboxylic acid, methyl ester]
70: Injury ratings ([3]; 32 g/ha) | visual assessment of weed control ([7]; 4 g/ha)
90: visual assessment of weed control ([5]; 4 g/ha) | visual assessment of weed control ([10]; 4 g/ha) | visual assessment of weed control ([10]; 8 g/ha) | visual assessment of weed control ([12]; 4 g/ha)
0: Injury ratings [2]
80: visual assessment of weed control ([9]; 4 g/ha) | visual assessment of weed control ([9]; 8 g/ha)
50: Injury ratings ([3]; 16 g/ha)
100: Injury ratings [1] | Plant Injury Rating 18 DAT ([4]; 16 g/ha) | Plant Injury Rating 18 DAT ([4]; 32 g/ha) | visual assessment of weed control ([5]; 8 g/ha) | visual assessment of weed control ([5]; 16 g/ha) | visual assessment of weed control ([5]; 32 g/ha) | visual assessment of weed control ([5]; 64 g/ha) | visual assessment of weed control ([5]; 125 g/ha) | visual assessment of weed control ([6]; 4 g/ha) | visual assessment of weed control ([6]; 8 g/ha) | visual assessment of weed control ([6]; 16 g/ha) | visual assessment of weed control ([6]; 32 g/ha) | visual assessment of weed control ([6]; 64 g/ha) | visual assessment of weed control ([6]; 125 g/ha) | visual assessment of weed control ([7]; 8 g/ha) | visual assessment of weed control ([7]; 16 g/ha) | visual assessment of weed control ([7]; 32 g/ha) | visual assessment of weed control ([7]; 64 g/ha) | visual assessment of weed control ([7]; 125 g/ha) | visual assessment of weed control ([8]; 4 g/ha) | visual assessment of weed control ([8]; 8 g/ha) | visual assessment of weed control ([8]; 16 g/ha) | visual assessment of weed control ([8]; 32 g/ha) | visual assessment of weed control ([8]; 64 g/ha) | visual assessment of weed control ([8]; 125 g/ha) | visual assessment of weed control ([9]; 16 g/ha) | visual assessment of weed control ([9]; 32 g/ha) | visual assessment of weed control ([9]; 64 g/ha) | visual assessment of weed control ([9]; 125 g/ha) | visual assessment of weed control ([10]; 16 g/ha) | visual assessment of weed control ([10]; 32 g/ha) | visual assessment of weed control ([10]; 64 g/ha) | visual assessment of weed control ([10]; 125 g/ha) | visual assessment of weed control ([11]; 4 g/ha) | visual assessment of weed control ([11]; 8 g/ha) | visual assessment of weed control ([11]; 16 g/ha) | visual assessment of weed control ([11]; 32 g/ha) | visual assessment of weed control ([11]; 64 g/ha) | visual assessment of weed control ([11]; 125 g/ha) | visual assessment of weed control ([12]; 8 g/ha) | visual assessment of weed control ([12]; 16 g/ha) | visual assessment of weed control ([12]; 32 g/ha) | visual assessment of weed control ([12]; 64 g/ha) | visual assessment of weed control ([12]; 125 g/ha) | Plant Injury Rating 15 DAT [13]
20: Injury ratings ([3]; 8 g/ha)

From patent publication EP0314302A2, “Herbicidal o-carbomethoxy-sulfonylureas” (E.I. DU PONT DE NEMOURS AND COMPANY, priority 1987, dated 1989)
